According to PubChem BioAssay AID463199 (Broad Institute, 2010):
The source made the active and inactive calls.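 The calls were made as follows: active = AC50, the dose giving half-maximal effect, exceeds a fixed cutoff for a compound that rescues yeast growth under heat; inactive = the rest, inconclusive results apart.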

Test system: S. cerevisiae Burl-1 ts mutant growth, BacTiter-Glo, 38.5C 24 h
Assay: restored growth of temperature-sensitive Burl-1 yeast – whole organism, S. cerevisiae, Burl-1 ts mutant, luminescence, counter-screen for SUMOylation pathway inhibitor project, dose response (AID 463199)

SMILES	AC50
CCOC(=O)c1sc(NC(=O)CSc2n[nH]c(-c3ccccc3)n2)c(C#N)c1C	> 42 µM (inactive)
Cc1ccn2cc(-c3cnoc3C)nc2c1	> 42 µM (inactive)
C/C(CC(=O)Nc1cccnc1)=N\NC(=O)C(C)Oc1ccc(Cl)cc1Cl (centres undefined)	> 42 µM (inactive)
COc1ccccc1N1CCN(C(=O)c2ccc(-c3ccccc3)cc2)CC1	> 42 µM (inactive)
NNc1nc2sc3c(c2c(=O)n1-c1ccccc1)CCCC3	> 42 µM (inactive)
O=C(c1ccccc1)C(CN1CCCC1)c1ccccc1 (centres undefined)	> 42 µM (inactive)
CC(C)[C@H](NC(=O)C1(c2ccccc2)CCN(C(=O)OC(C)(C)C)CC1)C(=O)O	> 42 µM (inactive)
Cc1cccc(N(C(=O)c2ccc(CN3CCOCC3)o2)C(C(=O)NC2CCCCC2)c2ccc(F)cc2)c1 (centres undefined)	> 42 µM (inactive)
CCCOc1ccc(N2C(=O)CC(N3CCC(C(=O)OCC)CC3)C2=O)cc1 (centres undefined)	> 42 µM (inactive)
CC1CCN(CCCOc2ccc(OCc3ccccc3)cc2)CC1	> 42 µM (inactive)
CN(CC(=O)Nc1ccccc1Sc1ccccc1)Cc1nc2ccccc2c(=O)[nH]1	> 42 µM (inactive)
CC(C)n1c(O)c(N=Nc2ccccn2)c2ccccc21	> 42 µM (inactive)
CCOC(=O)NC1(Nc2ccc(C)cc2)Oc2ccccc2O1	> 42 µM (inactive)
CN(C(=O)COc1cc(=O)n(C)c2ccccc12)c1ccc(Cl)cc1	> 42 µM (inactive)
Cn1cc(C(=O)Cc2ccccc2)c2ccccc21	> 42 µM (inactive)
CCCCNC(=O)C1C2C=CC3(CN(Cc4ccc(C)cc4)C(=O)C13)O2 (centres undefined)	> 42 µM (inactive)
CCOC(=O)C1CCN(CC(O)COc2ccc(C(C)(C)C)cc2)CC1 (centres undefined)	> 42 µM (inactive)
COc1ccccc1CSc1ncc(-c2ccc([N+](=O)[O-])cc2)[nH]1	> 42 µM (inactive)
COc1ccc([N+](=O)[O-])cc1NC(=O)C1CCCN1S(=O)(=O)c1cccs1 (centres undefined)	> 42 µM (inactive)
Cc1nc(N2CCN(c3ccccn3)CC2)c2c(C)c(C(=O)N3CCN(c4ccccc4F)CC3)sc2n1	> 42 µM (inactive)
Cc1cccc(NS(=O)(=O)c2ccc3[nH]c(=O)cc(C(=O)O)c3c2)c1	> 21 µM (inactive)
COc1ccccc1CNc1ncnc2c1nnn2Cc1ccccc1	> 42 µM (inactive)
CN(C)C(=O)CN1C(=O)c2cccc3cccc1c23	> 42 µM (inactive)
Cc1[nH]n(-c2ccccc2)c(=O)c1C(C[N+](=O)[O-])c1ccc(Br)cc1 (centres undefined)	42.1 µM
N#C/C(=C/c1ccc(N2CCCCC2)o1)C(=O)Nc1ccc(Cl)cc1	> 42 µM (inactive)

SMILES	AC50
CCCN1C(=O)c2[nH]nc(-c3cc(Cl)c(C)cc3O)c2C1c1ccc(O)c(OC)c1 (centres undefined)	> 42 µM (inactive)
COc1ccc(-c2c(C)nn3c(C)cc(C)nc23)cc1	> 42 µM (inactive)
COc1ccc(C2CC(c3cccs3)=NN2C(=O)c2ccccc2)cc1OC (centres undefined)	> 42 µM (inactive)
Nc1cc(=O)[nH]c(=O)n1CCc1ccccc1	> 42 µM (inactive)
Cc1ccc(Oc2ccccc2NC(=O)C2=COCCO2)cc1	> 42 µM (inactive)
COc1ccccc1C(=O)OCC(=O)NC(=O)NCc1ccccc1	> 42 µM (inactive)
COc1ccc2c(c1)[C@H]1[C@H](CO2)[C@H](c2ccccc2)[C@]2(C)C(=O)Nc3ccc(F)cc3C(=O)N12	> 42 µM (inactive)
O=C(/C=C/N1CCOCC1)c1coc2ccccc12	> 42 µM (inactive)
COc1ccc(N2CC(C(=O)N3CCc4ccccc43)CC2=O)cc1 (centres undefined)	> 42 µM (inactive)
Cc1cnc(NC(=O)CN2CCN(c3ccccc3F)CC2)s1	> 42 µM (inactive)
COC(=O)c1cccc(NC(=O)CN(c2ccc3c(c2)OCO3)S(C)(=O)=O)c1C	> 42 µM (inactive)
N#C/C(=C\c1ccc(O)c(O)c1)C(=O)Nc1ccccc1	> 42 µM (inactive)
Cc1ccc(NS(=O)(=O)c2csc(C(N)=O)c2)cc1C	> 42 µM (inactive)
OC(COCc1cccs1)CN1CCCCCC1 (centres undefined)	> 42 µM (inactive)
Cc1ccc(-n2nc3c(=O)n(CCCC(=O)NCc4cccc(F)c4)nc(C)c3c2C)cc1	> 42 µM (inactive)
CSc1cccc(NC(=S)N2CCCN(Cc3ccccc3F)C2)c1	> 42 µM (inactive)
Cc1ccc(-c2noc(C3CCCN(S(=O)(=O)c4ccc5ccccc5c4)C3)n2)o1 (centres undefined)	> 42 µM (inactive)
COc1ccc(NC(=O)C(c2ccccc2)N2CCN(c3ccccn3)CC2)cc1Cl (centres undefined)	> 42 µM (inactive)
Cc1c(O)ccc(C(=O)CN2C(=O)c3ccccc3C2=O)c1O	> 42 µM (inactive)
CCCn1c(SC(C)C(=O)NCC2CCCO2)nc2sc(CC)cc2c1=O (centres undefined)	> 42 µM (inactive)
CC(=O)c1c(Nc2cccc(F)c2)oc(C)cc1=O	> 42 µM (inactive)
COc1ccc(OC)c(NC(=O)CNC(=O)Cn2ccc3ccccc3c2=O)c1	> 42 µM (inactive)
Clc1ccccc1C(c1ccccc1)(c1ccccc1)n1ccnc1	> 42 µM (inactive)
C#CCn1c(=NC(=O)CN2C(=O)CCC2=O)sc2cccc(OC)c21	> 42 µM (inactive)
